Active and inactive are the calls of the source. No cut-off for these calls is given here.
What was measured:
MDA-MB-231 [1] = assay: Growth inhibition of human MDA-MB-231 cells by sulforhodamine B assay; format: functional
A549 [2] = assay: Growth inhibition of human A549 cells by sulforhodamine B assay; format: functional
HT-29 [3] = assay: Growth inhibition of human HT-29 cells by sulforhodamine B assay; format: functional; conditions: for CC50: read-out: LC50 (the source's name)
HT-29 [4] = assay: Growth inhibition of human HT-29 cells up to 25 uM by sulforhodamine B assay; format: functional, cell-based
A549 [5] = assay: Growth inhibition of human A549 cells up to 25 uM by sulforhodamine B assay; format: functional, cell-based
MDA-MB-231 [6] = assay: Growth inhibition of human MDA-MB-231 cells up to 25 uM by sulforhodamine B assay; format: functional, cell-based

Row | Structure (SMILES) | GI50 (MDA-MB-231 [1]) | LC50 (50% lethal concentration) (MDA-MB-231 [1]) | TGI (MDA-MB-231 [1]) | GI50 (A549 [2]) | GI50 (HT-29 [3]) | TGI (HT-29 [3]) | Activity (HT-29 [4]) | Activity (A549 [5]) | Activity (MDA-MB-231 [6]) | TGI (A549 [2]) | CC50 (HT-29 [3]) | CC50 (A549 [2]; read-out: LC50 (the source's name))
1 | C=C(C)[C@H]1CC2=C(C=O)C=C(O2)[C@H](O)[C@@](C)(O)C[C@@H]2OC(=O)[C@]3(O[C@@H]23)[C@H](OC(C)=O)C1 [7-EPI-LOPHODIOL A] | 3.2 µM | 8.5 µM | 4.6 µM | 3.9 µM | 2.8 µM | 4.8 µM | – | – | – | – | – | –
2 | C=C(C)[C@H]1CC2=C(C=O)C=C(O2)[C@@H](O)[C@@](C)(O)C[C@@H]2OC(=O)[C@]3(O[C@@H]23)[C@H](OC(C)=O)C1 | – | – | – | – | – | – | inactive | inactive | inactive | – | – | –
3 | C=C(C)[C@H]1CC2=C(C=O)C=C(O2)[C@H]2O[C@@]2(C)C[C@@H]2OC(=O)[C@]3(O[C@@H]23)[C@H](OC(C)=O)C1 | 4.8 µM | – | 6.2 µM | 5.3 µM | 5 µM | 6 µM | – | – | – | 8.4 µM | 8.4 µM | –
4 | CC(=O)OCC1([C@H]2CC3=C(C=O)C=C(O3)[C@H]3O[C@]3(C)C[C@@H]3OC(=O)[C@]4(O[C@@H]34)[C@H](OC(C)=O)C2)CO1 (stereo not given in full) | 5.1 µM | – | – | 5.1 µM | 8.2 µM | – | – | – | – | 6.9 µM | – | –
5 | C=C(COC(C)=O)[C@H]1CC2=C(C=O)C=C(O2)[C@H]2O[C@]2(C)C[C@@H]2OC(=O)[C@]3(O[C@@H]23)[C@H](OC(C)=O)C1 | 14.5 µM | – | – | 17.9 µM | – | – | – | – | – | – | – | –
6 | C=C(C)[C@H]1CC2=C(C=O)C=C(O2)[C@H](OC(C)=O)[C@@](C)(OC(C)=O)C[C@@H]2OC(=O)[C@]3(O[C@@H]23)[C@H](OC(C)=O)C1 [7-EPI-7,8-DI-O-ACETYLLOPHODIOL A] | 3.7 µM | – | – | 3.3 µM | 6.2 µM | 6.6 µM | – | – | – | 3.5 µM | 6.9 µM | 3.9 µM
7 | C=C(C)[C@@H]1CC2=C(C=O)C=C(O2)[C@@H]2O[C@@]2(C)C[C@H]2OC(=O)[C@@]3(O[C@H]23)[C@@H](OC(C)=O)C1 | – | – | – | – | – | – | inactive | inactive | inactive | – | – | –
8 | C=C(C)[C@@H]1CCC2=C[C@H](C[C@@]3(C)O[C@@H]3C(=O)/C=C(\C)C(=O)C1)OC2=O [ISOEPOXYLOPHODIONE] | 2.7 µM | 4.1 µM | 3.2 µM | 2.9 µM | 4.1 µM | 4.4 µM | – | – | – | 5.5 µM | 4.9 µM | –
9 | CC(=O)O[C@@H]1C[C@@H](C2(C)CO2)CC2=C(C=O)C=C(O2)[C@H]2O[C@]2(C)C[C@@H]2OC(=O)[C@]13O[C@@H]23 (stereo not given in full) | 5.8 µM | – | – | 6 µM | 4.6 µM | 6.2 µM | – | – | – | 9.7 µM | 9.2 µM | –
10 | C=C(C)[C@H]1CC2=C(C=O)C=C(O2)[C@H](O)[C@](C)(O)C[C@@H]2OC(=O)[C@]3(O[C@@H]23)[C@H](OC(C)=O)C1 [LOPHODIOL B] | – | – | – | – | 14.7 µM | – | – | – | – | – | – | –
11 | C=C(C)[C@@H]1CC[C@]2(C)O[C@H]2CC[C@H](C)/C=C/C=C(/C)C(=O)C1 | – | – | – | – | – | – | inactive | inactive | inactive | – | – | –
